Data as given in US12390437B2, “Itaconic acid derivatives and uses thereof intreating an inflammatory disease or a disease associated with an undesirable immune response” (Sitryx Therapeutics Limited, priority 2019, dated 2025).

System: not listed separately
Test: Mouse pharmacokinetic study, intravenous dosing
Assay type: in vivo
Conditions: male, C57BL/6, mouse, iv; plasma, 10 mg/kg i.v., time 0.05 h; read-out: Parent compound concentration following intravenous administration
Procedure, shortened: (§1)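 Oral arm: 100 mg/kg gavage in 5% DMSO with 0.5% HPMC/0.1% Tween 80, blood from 5 min to 24 h. Intravenous arm: 10 mg/kg tail-vein injection in 10% DMSO with HP-β-CD, blood from 3 min to 8 h. Male C57BL/6 mice; LC-MS/MS on plasma.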

concentration at 0.05 h [ng/mL]	SMILES
40800	C=C(CC(=O)O[C@@H](CCCCCC)C(F)(F)F)C(=O)OCC(=O)O [Example 182, (S)-2-((2-methylene-4-oxo-4-((1,1,1-trifluorooctan-2-yl)oxy)butanoyl)oxy)acetic acid]
36600	C=C(CC(=O)OC(C)(C)CCCCCC)C(=O)OCC(=O)O [Example 192, 2-((2-methylene-4-((2-methyloctan-2-yl)oxy)-4-oxobutanoyl)oxy)acetic acid]

Same assay, conditions: male, C57BL/6, mouse, iv; plasma, 10 mg/kg i.v., time 0.133 h; read-out: Parent compound concentration following intravenous administration

concentration at 0.133 h [ng/mL]	SMILES
17900	C=C(CC(=O)O[C@@H](CCCCCC)C(F)(F)F)C(=O)OCC(=O)O [Example 182, (S)-2-((2-methylene-4-oxo-4-((1,1,1-trifluorooctan-2-yl)oxy)butanoyl)oxy)acetic acid]
21400	C=C(CC(=O)OC(C)(C)CCCCCC)C(=O)OCC(=O)O [Example 192, 2-((2-methylene-4-((2-methyloctan-2-yl)oxy)-4-oxobutanoyl)oxy)acetic acid]

Same assay, conditions: male, C57BL/6, mouse, iv; plasma, 10 mg/kg i.v., time 0.25 h; read-out: Parent compound concentration following intravenous administration

concentration at 0.25 h [ng/mL]	SMILES
6740	C=C(CC(=O)O[C@@H](CCCCCC)C(F)(F)F)C(=O)OCC(=O)O [Example 182, (S)-2-((2-methylene-4-oxo-4-((1,1,1-trifluorooctan-2-yl)oxy)butanoyl)oxy)acetic acid]
11300	C=C(CC(=O)OC(C)(C)CCCCCC)C(=O)OCC(=O)O [Example 192, 2-((2-methylene-4-((2-methyloctan-2-yl)oxy)-4-oxobutanoyl)oxy)acetic acid]

Same assay, conditions: male, C57BL/6, mouse, iv; plasma, 10 mg/kg i.v., time 0.5 h; read-out: Parent compound concentration following intravenous administration

concentration at 0.5 h [ng/mL]	SMILES
2890	C=C(CC(=O)O[C@@H](CCCCCC)C(F)(F)F)C(=O)OCC(=O)O [Example 182, (S)-2-((2-methylene-4-oxo-4-((1,1,1-trifluorooctan-2-yl)oxy)butanoyl)oxy)acetic acid]
2910	C=C(CC(=O)OC(C)(C)CCCCCC)C(=O)OCC(=O)O [Example 192, 2-((2-methylene-4-((2-methyloctan-2-yl)oxy)-4-oxobutanoyl)oxy)acetic acid]

Same assay, conditions: male, C57BL/6, mouse, iv; plasma, 10 mg/kg i.v., time 1 h; read-out: Parent compound concentration following intravenous administration

concentration at 1 h [ng/mL]	SMILES
642	C=C(CC(=O)O[C@@H](CCCCCC)C(F)(F)F)C(=O)OCC(=O)O [Example 182, (S)-2-((2-methylene-4-oxo-4-((1,1,1-trifluorooctan-2-yl)oxy)butanoyl)oxy)acetic acid]
400	C=C(CC(=O)OC(C)(C)CCCCCC)C(=O)OCC(=O)O [Example 192, 2-((2-methylene-4-((2-methyloctan-2-yl)oxy)-4-oxobutanoyl)oxy)acetic acid]

Same assay, conditions: male, C57BL/6, mouse, iv; plasma, 10 mg/kg i.v., time 2 h; read-out: Parent compound concentration following intravenous administration

concentration at 2 h [ng/mL]	SMILES
88	C=C(CC(=O)O[C@@H](CCCCCC)C(F)(F)F)C(=O)OCC(=O)O [Example 182, (S)-2-((2-methylene-4-oxo-4-((1,1,1-trifluorooctan-2-yl)oxy)butanoyl)oxy)acetic acid]
86	C=C(CC(=O)OC(C)(C)CCCCCC)C(=O)OCC(=O)O [Example 192, 2-((2-methylene-4-((2-methyloctan-2-yl)oxy)-4-oxobutanoyl)oxy)acetic acid]

Same assay, conditions: male, C57BL/6, mouse, iv; plasma, 10 mg/kg i.v., time 4 h; read-out: Parent compound concentration following intravenous administration

concentration at 4 h [ng/mL]	SMILES
20	C=C(CC(=O)O[C@@H](CCCCCC)C(F)(F)F)C(=O)OCC(=O)O [Example 182, (S)-2-((2-methylene-4-oxo-4-((1,1,1-trifluorooctan-2-yl)oxy)butanoyl)oxy)acetic acid]
26	C=C(CC(=O)OC(C)(C)CCCCCC)C(=O)OCC(=O)O [Example 192, 2-((2-methylene-4-((2-methyloctan-2-yl)oxy)-4-oxobutanoyl)oxy)acetic acid]

Same assay, conditions: male, C57BL/6, mouse, iv; plasma, 10 mg/kg i.v., time 6 h; read-out: Parent compound concentration following intravenous administration

concentration at 6 h [ng/mL]	SMILES
6	C=C(CC(=O)O[C@@H](CCCCCC)C(F)(F)F)C(=O)OCC(=O)O [Example 182, (S)-2-((2-methylene-4-oxo-4-((1,1,1-trifluorooctan-2-yl)oxy)butanoyl)oxy)acetic acid]
< 4	C=C(CC(=O)OC(C)(C)CCCCCC)C(=O)OCC(=O)O [Example 192, 2-((2-methylene-4-((2-methyloctan-2-yl)oxy)-4-oxobutanoyl)oxy)acetic acid]

Same assay, conditions: male, C57BL/6, mouse, iv; plasma, 10 mg/kg i.v., time 8 h; read-out: Parent compound concentration following intravenous administration

concentration at 8 h [ng/mL]	SMILES
< 4	C=C(CC(=O)O[C@@H](CCCCCC)C(F)(F)F)C(=O)OCC(=O)O [Example 182, (S)-2-((2-methylene-4-oxo-4-((1,1,1-trifluorooctan-2-yl)oxy)butanoyl)oxy)acetic acid]
< 4	C=C(CC(=O)OC(C)(C)CCCCCC)C(=O)OCC(=O)O [Example 192, 2-((2-methylene-4-((2-methyloctan-2-yl)oxy)-4-oxobutanoyl)oxy)acetic acid]

System: hepatocytes
Test: Hepatocyte stability assay (human)
Assay type: in vitro ADME
Conditions: 10 μM compound, 0.5×10^6 cells/mL, 60 minutes
Procedure, shortened: (§2)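 Cryopreserved hepatocytes (viability >70%), 0.5×10^6 cells/mL in Leibovitz buffer, incubated at 37 °C with 10 μM compound (0.1% DMSO), duplicates; buffer-only incubations as negative control. Samples at 0-60 min quenched in acetonitrile, parent measured by LC-MS/MS; half-life and Clint (μL min^−1 10^−6 cells) from ln % remaining versus time slope.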

CIint (μL min^−1 10^−6 cells)	SMILES
60	C=C(CC(=O)O[C@@H](CCCCCC)C(F)(F)F)C(=O)OCC(=O)O [Example 182, (S)-2-((2-methylene-4-oxo-4-((1,1,1-trifluorooctan-2-yl)oxy)butanoyl)oxy)acetic acid]
32	C=C(CC(=O)OC(C)(C)CCCCCC)C(=O)OCC(=O)O [Example 192, 2-((2-methylene-4-((2-methyloctan-2-yl)oxy)-4-oxobutanoyl)oxy)acetic acid]

System: not listed separately
Test: Hepatocyte stability assay (human)
Assay type: in vitro ADME
Conditions: cryopreserved hepatocytes, 10 μM compound, 0.5×10^6 cells/mL, 60 minutes, read-out: T½
Procedure, shortened: as §2

half-life at 10 μM [min]	SMILES
28	C=C(CC(=O)O[C@@H](CCCCCC)C(F)(F)F)C(=O)OCC(=O)O [Example 182, (S)-2-((2-methylene-4-oxo-4-((1,1,1-trifluorooctan-2-yl)oxy)butanoyl)oxy)acetic acid]
54	C=C(CC(=O)OC(C)(C)CCCCCC)C(=O)OCC(=O)O [Example 192, 2-((2-methylene-4-((2-methyloctan-2-yl)oxy)-4-oxobutanoyl)oxy)acetic acid]

System: not listed separately
Test: Mouse pharmacokinetic study, oral administration
Assay type: in vivo
Conditions: male, C57BL/6, mouse, plasma, po, 100 mg/kg, plasma, male C57BL/6 mice, oral gavage 100 mg/kg, 0.083 h; read-out: Parent compound concentrations following oral administration, Time 0.083 h
Procedure, shortened: as §1

concentration at 0.083 h [ng/mL]	SMILES
65900	C=C(CC(=O)O[C@@H](CCCCCC)C(F)(F)F)C(=O)OCC(=O)O [Example 182, (S)-2-((2-methylene-4-oxo-4-((1,1,1-trifluorooctan-2-yl)oxy)butanoyl)oxy)acetic acid]
47000	C=C(CC(=O)OC(C)(C)CCCCCC)C(=O)OCC(=O)O [Example 192, 2-((2-methylene-4-((2-methyloctan-2-yl)oxy)-4-oxobutanoyl)oxy)acetic acid]

Same assay, conditions: male, C57BL/6, mouse, plasma, po, 100 mg/kg, plasma, male C57BL/6 mice, oral gavage 100 mg/kg, 0.25 h; read-out: Parent compound concentrations following oral administration, Time 0.25 h

concentration at 0.25 h [ng/mL]	SMILES
46800	C=C(CC(=O)O[C@@H](CCCCCC)C(F)(F)F)C(=O)OCC(=O)O [Example 182, (S)-2-((2-methylene-4-oxo-4-((1,1,1-trifluorooctan-2-yl)oxy)butanoyl)oxy)acetic acid]
60700	C=C(CC(=O)OC(C)(C)CCCCCC)C(=O)OCC(=O)O [Example 192, 2-((2-methylene-4-((2-methyloctan-2-yl)oxy)-4-oxobutanoyl)oxy)acetic acid]

Same assay, conditions: male, C57BL/6, mouse, plasma, po, 100 mg/kg, plasma, male C57BL/6 mice, oral gavage 100 mg/kg, 0.5 h; read-out: Parent compound concentrations following oral administration, Time 0.5 h

concentration at 0.5 h [ng/mL]	SMILES
27900	C=C(CC(=O)O[C@@H](CCCCCC)C(F)(F)F)C(=O)OCC(=O)O [Example 182, (S)-2-((2-methylene-4-oxo-4-((1,1,1-trifluorooctan-2-yl)oxy)butanoyl)oxy)acetic acid]
37900	C=C(CC(=O)OC(C)(C)CCCCCC)C(=O)OCC(=O)O [Example 192, 2-((2-methylene-4-((2-methyloctan-2-yl)oxy)-4-oxobutanoyl)oxy)acetic acid]

Same assay, conditions: male, C57BL/6, mouse, plasma, po, 100 mg/kg, plasma, male C57BL/6 mice, oral gavage 100 mg/kg, 1 h; read-out: Parent compound concentrations following oral administration, Time 1 h

concentration at 1 h [ng/mL]	SMILES
13500	C=C(CC(=O)O[C@@H](CCCCCC)C(F)(F)F)C(=O)OCC(=O)O [Example 182, (S)-2-((2-methylene-4-oxo-4-((1,1,1-trifluorooctan-2-yl)oxy)butanoyl)oxy)acetic acid]
25200	C=C(CC(=O)OC(C)(C)CCCCCC)C(=O)OCC(=O)O [Example 192, 2-((2-methylene-4-((2-methyloctan-2-yl)oxy)-4-oxobutanoyl)oxy)acetic acid]

Same assay, conditions: male, C57BL/6, mouse, plasma, po, 100 mg/kg, plasma, male C57BL/6 mice, oral gavage 100 mg/kg, 2 h; read-out: Parent compound concentrations following oral administration, Time 2 h

concentration at 2 h [ng/mL]	SMILES
5390	C=C(CC(=O)O[C@@H](CCCCCC)C(F)(F)F)C(=O)OCC(=O)O [Example 182, (S)-2-((2-methylene-4-oxo-4-((1,1,1-trifluorooctan-2-yl)oxy)butanoyl)oxy)acetic acid]
8740	C=C(CC(=O)OC(C)(C)CCCCCC)C(=O)OCC(=O)O [Example 192, 2-((2-methylene-4-((2-methyloctan-2-yl)oxy)-4-oxobutanoyl)oxy)acetic acid]

Same assay, conditions: male, C57BL/6, mouse, plasma, po, 100 mg/kg, plasma, male C57BL/6 mice, oral gavage 100 mg/kg, 4 h; read-out: Parent compound concentrations following oral administration, Time 4 h

concentration at 4 h [ng/mL]	SMILES
1370	C=C(CC(=O)O[C@@H](CCCCCC)C(F)(F)F)C(=O)OCC(=O)O [Example 182, (S)-2-((2-methylene-4-oxo-4-((1,1,1-trifluorooctan-2-yl)oxy)butanoyl)oxy)acetic acid]
5440	C=C(CC(=O)OC(C)(C)CCCCCC)C(=O)OCC(=O)O [Example 192, 2-((2-methylene-4-((2-methyloctan-2-yl)oxy)-4-oxobutanoyl)oxy)acetic acid]

Same assay, conditions: male, C57BL/6, mouse, plasma, po, 100 mg/kg, plasma, male C57BL/6 mice, oral gavage 100 mg/kg, 6 h; read-out: Parent compound concentrations following oral administration, Time 6 h

concentration at 6 h [ng/mL]	SMILES
1280	C=C(CC(=O)O[C@@H](CCCCCC)C(F)(F)F)C(=O)OCC(=O)O [Example 182, (S)-2-((2-methylene-4-oxo-4-((1,1,1-trifluorooctan-2-yl)oxy)butanoyl)oxy)acetic acid]
79	C=C(CC(=O)OC(C)(C)CCCCCC)C(=O)OCC(=O)O [Example 192, 2-((2-methylene-4-((2-methyloctan-2-yl)oxy)-4-oxobutanoyl)oxy)acetic acid]

Same assay, conditions: male, C57BL/6, mouse, plasma, po, 100 mg/kg, plasma, male C57BL/6 mice, oral gavage 100 mg/kg, 8 h; read-out: Parent compound concentrations following oral administration, Time 8 h

concentration at 8 h [ng/mL]	SMILES
417	C=C(CC(=O)O[C@@H](CCCCCC)C(F)(F)F)C(=O)OCC(=O)O [Example 182, (S)-2-((2-methylene-4-oxo-4-((1,1,1-trifluorooctan-2-yl)oxy)butanoyl)oxy)acetic acid]
41	C=C(CC(=O)OC(C)(C)CCCCCC)C(=O)OCC(=O)O [Example 192, 2-((2-methylene-4-((2-methyloctan-2-yl)oxy)-4-oxobutanoyl)oxy)acetic acid]

Same assay, conditions: male, C57BL/6, mouse, plasma, po, 100 mg/kg, plasma, male C57BL/6 mice, oral gavage 100 mg/kg, 24 h; read-out: Parent compound concentrations following oral administration, Time 24 h

concentration at 24 h [ng/mL]	SMILES
5.9	C=C(CC(=O)O[C@@H](CCCCCC)C(F)(F)F)C(=O)OCC(=O)O [Example 182, (S)-2-((2-methylene-4-oxo-4-((1,1,1-trifluorooctan-2-yl)oxy)butanoyl)oxy)acetic acid]
6.6	C=C(CC(=O)OC(C)(C)CCCCCC)C(=O)OCC(=O)O [Example 192, 2-((2-methylene-4-((2-methyloctan-2-yl)oxy)-4-oxobutanoyl)oxy)acetic acid]
